Source: patent US8173689B2 (Novartis AG, priority 2006, dated 2012)
Like-named read-outs stand apart in the source and are kept apart here.

Assays:
[1] = tested on: MNFS60 (murine AML cells); experiment: Cell viability assay in MCSF dependent MNFS60 cells (Cell Titer Glo); type: cell-based; settings: Mus musculus, tested at about 1 μM, read-out: M-NFS-60 CP percent inhibition
Outline: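 3-fold DMSO dilution series (500× stocks); MCSF 10 ng/ml final; 72 hrs, 37° C., 5% CO2; CellTiter-Glo read-out; n=3; EC50 fitted.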

kinase domain of PDGFRβ = molecular target: T1, kinase domain of PDGFRβ (Homo sapiens, UniProt P09619); experiment: Inhibition of PDGFRb kinase signaling in an in vitro biochemical assay (alphascreen); settings: tested at about 1 μM, read-out: PDGFRβ percent inhibition
T1 construct: The kinase domain of PDGFRβ was assayed in 50 mM Hepes; purchased Invitrogen P3082

[2] = molecular target: T2, full-length human CSF-1R receptor (Homo sapiens, UniProt P07333); experiment: In vitro inhibition of CSF-1R receptor tyrosine phosphorylation in transfected HEK293H cells stimulated with MCSF; type: cell-based; settings: HEK293-H, tested at about 1 μM, read-out: pCSF1R percent inhibition
T2 construct: transfected with the full-length human CSF-1R receptor cloned in house; expressed in transfected cells; host or cells: HEK293H (Invitrogen Cat. #11631017)
Protocol: The lysate was then transferred to total CSF-1R antibody coated 96-well plates that had already been blocked with 3% Blocker A from Mesoscale discovery (MSD) for 2 hours and washed afterwards. Lysates were incubated overnight at 4° C. and the plates were then washed 4× with MSD Tris Wash Buffer. […] The plates were read on the Sector 6000 instrument (MSD). Raw data was imported in Abase and EC50s calculated with XL-fit data analysis software.

kinase domain of cKIT = molecular target: T3, kinase domain of cKIT (Homo sapiens, UniProt P10721); experiment: Inhibition of cKIT kinase signaling in an in vitro biochemical assay (alphascreen); settings: tested at about 1 μM, read-out: cKit percent inhibition
T3 construct: The kinase domain of cKIT was assayed in 50 mM Hepes; purchased Upstate 14-559

[3] = molecular target: T4, cytoplasmic domain of the human CSF-1R (Homo sapiens, UniProt P07333); experiment: In vitro kinase assay for colony stimulating factor-1 receptor (AlphaScreen); type: biochemical; settings: tested at about 1 μM, read-out: CSF-1R percent inhibition
T4 construct: Recombinant protein corresponding to the cytoplasmic domain of the human CSF-1R; purchased Invitrogen Corporation, Carlsbad, Calif; PV3249
T4 sequence (P07333 539-972 limits assumed): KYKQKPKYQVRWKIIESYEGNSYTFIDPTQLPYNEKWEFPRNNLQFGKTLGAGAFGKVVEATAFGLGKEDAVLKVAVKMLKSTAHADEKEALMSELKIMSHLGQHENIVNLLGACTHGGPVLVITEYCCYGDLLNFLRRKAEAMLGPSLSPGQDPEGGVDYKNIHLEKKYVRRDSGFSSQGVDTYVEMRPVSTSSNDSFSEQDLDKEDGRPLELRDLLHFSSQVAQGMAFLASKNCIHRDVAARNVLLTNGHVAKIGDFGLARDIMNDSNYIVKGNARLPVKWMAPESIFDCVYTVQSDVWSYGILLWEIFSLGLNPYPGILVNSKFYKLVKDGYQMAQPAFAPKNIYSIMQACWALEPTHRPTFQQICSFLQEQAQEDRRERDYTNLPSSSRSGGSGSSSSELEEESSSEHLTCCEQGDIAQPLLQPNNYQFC
Outline: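 At a low ATP level of 1 μM, phosphate transfer by the cytoplasmic-domain kinase (4 nM) was quantified with an AlphaScreen anti-phosphotyrosine bead pair.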

T1 sequence (P09619 600-962 limits assumed): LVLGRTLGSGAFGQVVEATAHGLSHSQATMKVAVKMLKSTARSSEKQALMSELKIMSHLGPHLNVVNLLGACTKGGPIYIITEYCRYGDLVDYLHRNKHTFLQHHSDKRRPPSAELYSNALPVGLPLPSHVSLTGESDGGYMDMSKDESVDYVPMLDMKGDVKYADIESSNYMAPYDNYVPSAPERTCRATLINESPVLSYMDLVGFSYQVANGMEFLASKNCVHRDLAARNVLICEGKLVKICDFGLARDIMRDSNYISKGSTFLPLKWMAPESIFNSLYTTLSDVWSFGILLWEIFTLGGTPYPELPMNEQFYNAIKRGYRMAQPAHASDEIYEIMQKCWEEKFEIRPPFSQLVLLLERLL
T2 sequence (P07333 20-972): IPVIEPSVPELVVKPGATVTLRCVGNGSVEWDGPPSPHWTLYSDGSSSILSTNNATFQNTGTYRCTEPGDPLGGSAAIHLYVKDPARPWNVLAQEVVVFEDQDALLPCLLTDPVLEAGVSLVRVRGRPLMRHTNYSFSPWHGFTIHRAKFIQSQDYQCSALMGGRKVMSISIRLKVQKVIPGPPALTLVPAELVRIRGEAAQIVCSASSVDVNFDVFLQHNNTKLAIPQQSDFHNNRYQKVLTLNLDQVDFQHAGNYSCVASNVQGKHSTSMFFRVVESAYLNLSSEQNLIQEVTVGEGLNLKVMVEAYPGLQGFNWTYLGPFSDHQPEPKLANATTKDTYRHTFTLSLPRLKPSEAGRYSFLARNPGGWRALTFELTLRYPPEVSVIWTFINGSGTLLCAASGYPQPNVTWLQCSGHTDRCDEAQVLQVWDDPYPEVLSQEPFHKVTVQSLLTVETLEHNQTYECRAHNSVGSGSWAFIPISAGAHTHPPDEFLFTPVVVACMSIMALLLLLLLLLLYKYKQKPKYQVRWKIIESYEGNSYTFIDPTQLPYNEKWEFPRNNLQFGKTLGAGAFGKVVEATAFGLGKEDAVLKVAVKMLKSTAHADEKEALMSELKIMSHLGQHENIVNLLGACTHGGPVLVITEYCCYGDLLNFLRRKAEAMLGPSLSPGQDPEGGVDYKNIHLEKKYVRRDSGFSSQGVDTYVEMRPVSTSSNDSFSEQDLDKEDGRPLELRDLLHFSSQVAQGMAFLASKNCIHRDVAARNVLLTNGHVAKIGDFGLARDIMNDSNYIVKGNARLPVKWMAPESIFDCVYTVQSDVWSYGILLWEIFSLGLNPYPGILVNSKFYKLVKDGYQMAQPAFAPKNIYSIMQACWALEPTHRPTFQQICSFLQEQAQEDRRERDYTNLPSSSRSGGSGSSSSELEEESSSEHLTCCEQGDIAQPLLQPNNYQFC
T3 sequence (P10721 589-937 limits assumed): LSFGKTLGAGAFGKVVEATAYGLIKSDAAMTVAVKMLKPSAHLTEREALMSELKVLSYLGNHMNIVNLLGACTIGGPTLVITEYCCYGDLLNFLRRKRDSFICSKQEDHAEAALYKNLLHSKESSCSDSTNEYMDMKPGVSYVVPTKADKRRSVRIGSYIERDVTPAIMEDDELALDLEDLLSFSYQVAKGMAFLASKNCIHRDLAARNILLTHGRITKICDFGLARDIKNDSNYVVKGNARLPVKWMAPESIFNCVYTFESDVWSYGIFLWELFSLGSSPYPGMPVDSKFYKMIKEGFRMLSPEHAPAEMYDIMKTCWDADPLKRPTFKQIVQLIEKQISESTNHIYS

## Cn1cc(-c2cc(Oc3ccc4nc(N[C@@H](CO)C5CCCCC5)sc4c3)ccn2)cn1 [Example 347, (R)-2-cyclohexyl-2-(6-(2-(1-methyl-1H-pyrazol-4-yl)pyridin-4-yloxy)benzo[d]thiazol-2-ylamino)ethanol]
[1]; MCSF dependent MNFS60 cells
  inhibition at 1 µM: 100%
Kinase domain of PDGFRβ
  inhibition at 1 µM: 58%
[2]; HEK293H cells
  inhibition at 1 µM: 99%
Kinase domain of cKIT
  inhibition at 1 µM: 37%
[3]
  inhibition at 1 µM: 100%

## C[C@H](Nc1nc2ccc(Oc3ccnc(-c4cccnc4)c3)cc2s1)C1CCCCC1 [Example 274, (S)-6-(2,3'-bipyridin-4-yloxy)-N-(1-cyclohexylethyl)benzo[d] thiazol-2-amine]
[1]; compounds of Table 3
  inhibition at 1 µM: 76%
Kinase domain of PDGFRβ; compounds of Table 3
  inhibition at 1 µM: 12%
[2]; compounds of Table 3
  inhibition at 1 µM: 82%
Kinase domain of cKIT; compounds of Table 3
  inhibition at 1 µM: 28%
[3]; compounds of Table 3
  inhibition at 1 µM: 100%

## CNC(=O)c1cc(Oc2ccc3nc(NCc4ccccn4)sc3c2)ccn1 [Compound 150, 4-{2-[(Pyridin-2-ylmethyl)-amino]-benzothiazol-6-yloxy}-pyridine-2-carboxylic acid methylamide]
[1]; MNFS60 cells
  inhibition at 1 µM: 49%
Kinase domain of PDGFRβ
  inhibition at 1 µM: 1%
[2]; HEK293H cells
  inhibition at 1 µM: 87%
Kinase domain of cKIT
  inhibition at 1 µM: 34%
[3]
  inhibition at 1 µM: 99%

## CCc1[nH]c(-c2cc(Oc3ccc4nc(N[C@@H]5CCCC[C@H]5O)sc4c3)ccn2)nc1C [Cmpd 162, (1R,2R)-2-(6-(2-(5-ethyl-4-methyl-1H-imidazol-2-yl)pyridin-4-yloxy)benzo[d]thiazol-2-ylamino)cyclohexanol]
[1]; compounds of Table 3
  inhibition at 1 µM: 100%
Kinase domain of PDGFRβ; compounds of Table 3
  inhibition at 1 µM: 30%
[2]; compounds of Table 3
  inhibition at 1 µM: 99%
Kinase domain of cKIT; compounds of Table 3
  inhibition at 1 µM: 20%
[3]; compounds of Table 3
  inhibition at 1 µM: 100%

## CN1CCN(c2ccc(-c3cc(Oc4ccc5nc(N[C@@H]6CCCC[C@H]6O)sc5c4)ccn3)cn2)CC1 [Cmpd 164, (1R,2R)-2-(6-(6'-(4-methylpiperazin-1-yl)-2,3'-bipyridin-4-yloxy)benzo[d]thiazol-2-ylamino)cyclohexanol]
[1]; compounds of Table 3
  inhibition at 1 µM: 100%
Kinase domain of PDGFRβ; compounds of Table 3
  inhibition at 1 µM: 87%
[2]; compounds of Table 3
  inhibition at 1 µM: 100%
Kinase domain of cKIT; compounds of Table 3
  inhibition at 1 µM: 79%
[3]; compounds of Table 3
  inhibition at 1 µM: 100%

## CC(C)(C)[C@@H](CO)Nc1nc2ccc(Oc3ccnc4ccccc34)cc2s1 [Example 248, (S)-3,3-dimethyl-2-(6-(quinolin-4-yloxy)benzo[d]thiazol-2-ylamino)butan-1-ol]
[1]; compounds of Table 3
  inhibition at 1 µM: 51%
Kinase domain of PDGFRβ; compounds of Table 3
  inhibition at 1 µM: 41%
[2]; compounds of Table 3
  inhibition at 1 µM: 39%
Kinase domain of cKIT; compounds of Table 3
  inhibition at 1 µM: 33%
[3]; compounds of Table 3
  inhibition at 1 µM: 100%

## CNC(=O)c1cc(Oc2ccc3nc(N[C@H]4CCCN(C(=O)C(C)C)C4)sc3c2)ccn1 [Example 334, (S)-4-(2-(1-isobutyrylpiperidin-3-ylamino)benzo[d]thiazol-6-yloxy)-N-methylpicolinamide]
[1]; MCSF dependent MNFS60 cells
  inhibition at 1 µM: 67%
Kinase domain of PDGFRβ
  inhibition at 1 µM: 15%
[2]; HEK293H cells
  inhibition at 1 µM: 71%
Kinase domain of cKIT
  inhibition at 1 µM: 20%
[3]
  inhibition at 1 µM: 100%

## O[C@@H]1CCCC[C@H]1Nc1nc2ccc(Oc3ccnc4cc(OC(F)(F)F)ccc34)cc2s1 [Example 230, (1R,2R)-2-(6-(7-(trifluoromethoxy)quinolin-4-yloxy)benzo[d]thiazol-2-ylamino)cyclohexanol]
[1]; compounds of Table 3
  inhibition at 1 µM: 58%
Kinase domain of PDGFRβ; compounds of Table 3
  inhibition at 1 µM: 14%
[2]; compounds of Table 3
  inhibition at 1 µM: 65%
Kinase domain of cKIT; compounds of Table 3
  inhibition at 1 µM: 6%
[3]; compounds of Table 3
  inhibition at 1 µM: 100%

## CC(C)CONC(=O)c1cc(Oc2ccc3nc(N[C@@H]4CCCC[C@H]4O)sc3c2)ccn1 [Example 381, 4-(2-((1R,2R)-2-hydroxycyclohexylamino)benzo[d]thiazol-6-yloxy)-N-isobutoxypicolinamide]
[1]; MCSF dependent MNFS60 cells
  inhibition at 1 µM: 100%
Kinase domain of PDGFRβ
  inhibition at 1 µM: 20%
[2]; HEK293H cells
  inhibition at 1 µM: 99%
Kinase domain of cKIT
  inhibition at 1 µM: 30%
[3]
  inhibition at 1 µM: 100%

## Cc1c[nH]c(-c2cc(Oc3ccc4nc(N[C@@H](C)C5CCCCC5)sc4c3)ccn2)n1 [Example 268, (S)-N-(1-cyclohexylethyl)-6-(2-(4-methyl-1H-imidazol-2-yl)pyridin-4-yloxy)benzo[d]thiazol-2-amine]
[1]; compounds of Table 3
  inhibition at 1 µM: 84%
Kinase domain of PDGFRβ; compounds of Table 3
  inhibition at 1 µM: 29%
[2]; compounds of Table 3
  inhibition at 1 µM: 87%
Kinase domain of cKIT; compounds of Table 3
  inhibition at 1 µM: 25%
[3]; compounds of Table 3
  inhibition at 1 µM: 100%

## CNC(=O)c1cc(Oc2ccc3nc(N[C@@H](C)c4ccccc4OC)sc3c2)ccn1 [Example 328, (S)-4-(2-(1-(2-methoxyphenyl)ethylamino)benzo[d]thiazol-6-yloxy)-N-methylpicolinamide]
[1]; MCSF dependent MNFS60 cells
  inhibition at 1 µM: 63%
Kinase domain of PDGFRβ
  inhibition at 1 µM: 0%
[2]; HEK293H cells
  inhibition at 1 µM: 80%
Kinase domain of cKIT
  inhibition at 1 µM: 14%
[3]
  inhibition at 1 µM: 100%

## CNC(=O)c1cc(Oc2ccc3nc(NC[C@@H](O)c4ccccc4)sc3c2)ccn1 [Compound 145]
[1]; compounds of Table 3
  inhibition at 1 µM: 58%
Kinase domain of PDGFRβ; compounds of Table 3
  inhibition at 1 µM: 33%
[2]; compounds of Table 3
  inhibition at 1 µM: 86%
Kinase domain of cKIT; compounds of Table 3
  inhibition at 1 µM: 39%
[3]; compounds of Table 3
  inhibition at 1 µM: 100%

## CNC(=O)c1cc(Oc2ccc3nc(N[C@H]4CCCC[C@@H]4OCc4ccccc4)sc3c2)ccn1 [Compound 156, 4-[2-((1S,2S)-2-Benzyloxy-cyclohexylamino)-benzothiazol-6-yloxy]-pyridine-2-carboxylic acid methylamide]
[1]; MNFS60 cells
  inhibition at 1 µM: 63%
Kinase domain of PDGFRβ
  inhibition at 1 µM: 41%
[2]; HEK293H cells
  inhibition at 1 µM: 16%
Kinase domain of cKIT
  inhibition at 1 µM: 27%
[3]
  inhibition at 1 µM: 100%

## CNC(=O)c1cc(Oc2ccc3nc(N[C@H]4CCCC[C@@H]4O)oc3c2)ccn1 [Compound 52, 4-[2-((1S,2S)-2-Hydroxy-cyclohexylamino)-benzooxazol-6-yloxy]-pyridine-2-carboxylic acid methylamide]
[1]; MNFS60 cells
  inhibition at 1 µM: 56%
Kinase domain of PDGFRβ
  inhibition at 1 µM: 50%
[2]; HEK293H cells
  inhibition at 1 µM: 71%
Kinase domain of cKIT
  inhibition at 1 µM: 12%
[3]
  inhibition at 1 µM: 100%

## CNC(=O)c1cc(Oc2ccc3nc(NCCc4ccccc4)sc3c2)ccn1 [Compound 133, 4-(2-Phenethylamino-benzo-thiazol-6-yloxy)-pyridine-2-carboxylic acid methylamide]
[1]; MNFS60 cells
  inhibition at 1 µM: 45%
Kinase domain of PDGFRβ
  inhibition at 1 µM: 3%
[2]; HEK293H cells
  inhibition at 1 µM: 92%
Kinase domain of cKIT
  inhibition at 1 µM: 53%
[3]
  inhibition at 1 µM: 99%

## O[C@@H]1CCCC[C@H]1Nc1nc2ccc(Oc3ccnc(-c4cccnc4)c3)cc2s1 [Example 345, (1R,2R)-2-(6-(2,3'-bipyridin-4-yloxy)benzo[d]thiazol-2-ylamino)cyclohexanol]
[1]; MCSF dependent MNFS60 cells
  inhibition at 1 µM: 97%
Kinase domain of PDGFRβ
  inhibition at 1 µM: 13%
[2]; HEK293H cells
  inhibition at 1 µM: 93%
Kinase domain of cKIT
  inhibition at 1 µM: 19%
[3]
  inhibition at 1 µM: 100%

## CNC(=O)c1cc(Oc2ccc3nc(Nc4ccccc4-n4ccnc4C)oc3c2)ccn1 [Compound 47, 4-{2-[2-(2-Methyl-imidazol-1-yl)-phenylamino]-benzooxazol-6-yloxy}-pyridine-2-carboxylic acid methylamide]
[1]; compounds of Table 3
  inhibition at 1 µM: 55%
[1]; compounds of Table 4
  inhibition at 1 µM: 58%
Kinase domain of PDGFRβ; compounds of Table 3
  inhibition at 1 µM: 4%
Kinase domain of PDGFRβ; compounds of Table 4
  inhibition at 1 µM: 31%
Kinase domain of PDGFRβ
  inhibition at 1 µM: 12%
[2]; compounds of Table 3
  inhibition at 1 µM: 83%
[2]; compounds of Table 4
  inhibition at 1 µM: 79%
Kinase domain of cKIT; compounds of Table 3
  inhibition at 1 µM: 0%
Kinase domain of cKIT; compounds of Table 4
  inhibition at 1 µM: 55%
[3]; compounds of Table 3
  inhibition at 1 µM: 100%
[3]; compounds of Table 4
  inhibition at 1 µM: 100%
[3]
  inhibition at 1 µM: 13%

## O[C@@H]1CCCC[C@H]1Nc1nc2ccc(Oc3ccnc(-c4ccc(CN5CCOCC5)cc4)c3)cc2s1 [Cmpd 168, (1R,2R)-2-(6-(2-(4-(morpholinomethyl)phenyl)pyridin-4-yloxy)benzo[d]thiazol-2-ylamino)cyclohexanol]
[1]; compounds of Table 3
  inhibition at 1 µM: 100%
Kinase domain of PDGFRβ; compounds of Table 3
  inhibition at 1 µM: 43%
[2]; compounds of Table 3
  inhibition at 1 µM: 99%
Kinase domain of cKIT; compounds of Table 3
  inhibition at 1 µM: 40%
[3]; compounds of Table 3
  inhibition at 1 µM: 100%
